US12383545B1, “Treatment of migraine” (priority 2018, dated 2025)

Experiments:
Format in all cases: in vivo, human
[1] = system: participants with episodic migraine; test: Study C: 40-week open-label extension, safety and tolerability of atogepant 60 mg once daily
Experimental: An open-label extension study for trial completers evaluated the long-term safety and tolerability of oral atogepant 60 mg daily for the prevention of migraine in participants with episodic migraine.
Participants in this trial (Study C) rolled over from the lead in trial (Study A) and were treated with atogepant 60 mg once daily for 40-weeks, with a 4-week safety follow-up period. Only safety data were collected.
Of 695 participants screened, a total of 685 participants took at least one dose of study medication and were included in the safety population. Overall, the mean age was 41.8 years. Female participants accounted for 88.2% of the Safety Population. White and Black or African American patients accounted for 84.4% and 12.6%, respectively. Mean BMI was 30.58 kg/m2.

ALT or AST = test: Study A: postbaseline hepatic laboratory parameters (ALT or AST, potential Hy's Law); details: safety population; for ALT or AST >=1 * ULN, n/N1 (%) / ALT or AST >=1.5 * ULN, n/N1 (%) / ALT or AST >=2 * ULN, n/N1 (%) / ALT or AST >=5 * ULN, n/N1 (%) / ALT or AST >=10 * ULN, n/N1 (%) / ALT or AST >=20 * ULN, n/N1: postbaseline
Experimental: (§1) Adverse events were reported by participants throughout the trial, and at a 4-week follow-up visit. Adverse event information was collected and documented during each clinic visit. Participants could also report adverse events via telephone call between visits. Causality of each adverse event was determined by the investigator who was blinded to the treatment. In addition, clinical laboratory tests, vital signs, electrocardiograms (ECG), and Columbia-Suicide Severity Rating Scale were evaluated. Based on the potential hepatotoxicity of prior gepants, treatment-emergent elevations in ALT or AST ≥3 times the upper limit of normal, as well as potential Hy's law cases, were evaluated as prespecified adverse events of special interest and were reviewed by an independent panel of liver experts blinded to treatment (see, e.g., Negro A et al., CGRP Receptor Antagonists: an expanding drug class for acute migraine? Expert Opin Investig Drugs 2012; 21:807-18; Messina R et al., CGRP—a target for acute therapy in migraine: Clinical Data. Cephalalgia 2019; 39:420-7).
There were no hepatic safety issues identified in this trial. ALT and/or AST increases were low across all atogepant doses and occurred at a lower rate than placebo. […] No cases of liver disease were reported, and no case met the criteria for potential Hy's Law following daily dosing for 12 weeks.

[2] = system: participants with episodic migraine; test: Study A: adverse events (safety population); details: for Deaths, n (%) / TEAE Constipation, n (%) / TEAE Fatigue, n (%) / TEAE Gastroenteritis, n (%) / TEAE Influenza, n (%) / TEAE Nasopharyngitis, n (%) / TEAE Nausea, n (%) / TEAE Sinus Congestion, n (%) / TEAE Sinusitis, n (%) / TEAE Somnolence, n (%) / TEAE Upper Respiratory Tract Infection, n (%) / TEAE Urinary Tract Infection, n (%): Study A, safety population
Experimental: as §1
Safety population included all randomized participants who took at least 1 dose of trial treatment. Participants are only counted once within each category. Percentages are calculated at 100×(n/N), where n is the number of participants within a specific category and N is the number of participants in the safety population for the treatment group. Adverse events are listed in decreasing order based on frequency reported in the overall population.

[3] = system: participants with episodic migraine; test: Study B: MSQ v2.1 domain score over 52 weeks; details: Role Function-Restrictive (RFR) domain, atogepant 60 mg, mITT Population
Description: The Migraine-Specific Quality of Life Questionnaire Version 2.1 is one of the most frequently utilized disease-specific tools assessing the impact of migraine on HRQL. The MSQ is a validated tool that assess the impact of migraine on function (i.e., daily social and work-related activities) over the past 4 weeks across three dimensions: Role Function-Restrictive (RR, or “RFR”, relating to how migraines limit the patient's daily social and work related activities), Role Function-Preventive (RP, e.g., how migraines prevent the patient's daily social and work related activities), and Emotional Function (EF, e.g., the emotions associated with a patient's migraines). Patients respond to items using a 6-point scale: “none of the time,” “a little bit of the time,” “some of the time”, “a good bit of the time,” “most of the time” and “all of the time,” which are assigned scores of 1 to 6, respectively. Raw dimension scores are computed as a sum of item responses and rescaled from a 0 to 100 scale such that higher scores indicate better quality of life. See Bagley et al., Validating Migraine-Specific Quality of Life Questionnaire v2.1 in Episodic and Chronic Migraine, Headache, 2012 March; 52 (3): 409-21.
The Migraine-Specific Quality of Life Questionnaire version 2.1 (MSQv2.1) Role Function-Restrictive (RFR) domain least squares (LS) mean (standard error [SE]) at baseline was 48.1 (20.26) and LS mean changes from baseline throughout the trial are shown in FIG. 17 and in Table 32. Findings indicated rapid improvement over the first 12 weeks and sustained improvement from 12 to 52 weeks, and non-zero confidence intervals throughout indicate significant improvement at each timepoint assessed.

[4] = Atogepant 60 mg QD, Safety Population N = 685

C[C@@H]1[C@H](c2c(F)ccc(F)c2F)C[C@H](NC(=O)c2cnc3c(c2)C[C@@]2(C3)C(=O)Nc3ncccc32)C(=O)N1CC(F)(F)F [atogepant]
deaths observed ([1]; 60 mg once daily, 40 weeks): No deaths | TEAE by Preferred Term: Corona virus infection [1, 4]: 15 (2.2) n (%) | TEAE by Preferred Term: Influenza [1, 4]: 17 (2.5) n (%) | Deaths, participants ([1]; atogepant 60 mg once daily, 40 weeks, Safety Population N = 685): (0.0) % | ALT or AST >=1 * ULN, n/N1 (%) (ALT or AST; 10 mg QD): (8.6) % | ALT or AST >=1.5 * ULN, n/N1 (%) (ALT or AST; 10 mg QD): (1.4) % | ALT or AST >=2 * ULN, n/N1 (%) (ALT or AST; 10 mg QD): (0.9) % | ALT or AST >=5 * ULN, n/N1 (%) (ALT or AST; 10 mg QD): (0.5) % | ALT or AST >=10 * ULN, n/N1 (%) (ALT or AST; 10 mg QD): (0.5) % | ALT or AST >=20 * ULN, n/N1 (ALT or AST; 10 mg QD): 0 | Potential Hy's Law (ALT or AST >= 3 * ULN AND Bilirubin Total >= 2 * ULN AND ALP < 2 * ULN), n/N1 (ALT or AST; 10 mg QD): 0 | ALT or AST >=1 * ULN, n/N1 (%) (ALT or AST; 30 mg QD): (8.0) % | ALT or AST >=1.5 * ULN, n/N1 (%) (ALT or AST; 30 mg QD): (3.1) % | ALT or AST >=2 * ULN, n/N1 (%) (ALT or AST; 30 mg QD): (0.9) % | ALT or AST >=5 * ULN, n/N1 (%) (ALT or AST; 30 mg QD): (0.4) % | ALT or AST >=10 * ULN, n/N1 (%) (ALT or AST; 30 mg QD): 0% | ALT or AST >=20 * ULN, n/N1 (ALT or AST; 30 mg QD): 0 | Potential Hy's Law (ALT or AST >= 3 * ULN AND Bilirubin Total >= 2 * ULN AND ALP < 2 * ULN), n/N1 (ALT or AST; 30 mg QD): 0 | ALT or AST >=1 * ULN, n/N1 (%) (ALT or AST; 60 mg QD): (12.3) % | ALT or AST >=1.5 * ULN, n/N1 (%) (ALT or AST; 60 mg QD): (3.1) % | ALT or AST >=2 * ULN, n/N1 (%) (ALT or AST; 60 mg QD): (1.8) % | ALT or AST >=5 * ULN, n/N1 (%) (ALT or AST; 60 mg QD): (0.4) % | ALT or AST >=10 * ULN, n/N1 (%) (ALT or AST; 60 mg QD): 0% | ALT or AST >=20 * ULN, n/N1 (ALT or AST; 60 mg QD): 0 | Potential Hy's Law (ALT or AST >= 3 * ULN AND Bilirubin Total >= 2 * ULN AND ALP < 2 * ULN), n/N1 (ALT or AST; 60 mg QD): 0 | Deaths, n (%) ([2]; 10 mg QD): (0.0) % | TEAE Constipation, n (%) ([2]; 10 mg QD): (7.7) % | TEAE Fatigue, n (%) ([2]; 10 mg QD): (1.4) % | TEAE Gastroenteritis, n (%) ([2]; 10 mg QD): (0.9) % | TEAE Influenza, n (%) ([2]; 10 mg QD): (1.4) % | TEAE Nasopharyngitis, n (%) ([2]; 10 mg QD): (1.8) % | TEAE Nausea, n (%) ([2]; 10 mg QD): (5.0) % | TEAE Sinus Congestion, n (%) ([2]; 10 mg QD): (0.5) % | TEAE Sinusitis, n (%) ([2]; 10 mg QD): (1.8) % | TEAE Somnolence, n (%) ([2]; 10 mg QD): (3.2) % | TEAE Upper Respiratory Tract Infection, n (%) ([2]; 10 mg QD): (4.1) % | TEAE Urinary Tract Infection, n (%) ([2]; 10 mg QD): (1.4) % | Deaths, n (%) ([2]; 30 mg QD): (0.0) % | TEAE Constipation, n (%) ([2]; 30 mg QD): (7.0) % | TEAE Fatigue, n (%) ([2]; 30 mg QD): (3.1) % | TEAE Gastroenteritis, n (%) ([2]; 30 mg QD): (2.2) % | TEAE Influenza, n (%) ([2]; 30 mg QD): (0.9) % | TEAE Nasopharyngitis, n (%) ([2]; 30 mg QD): (3.5) % | TEAE Nausea, n (%) ([2]; 30 mg QD): (4.4) % | TEAE Sinus Congestion, n (%) ([2]; 30 mg QD): (0.9) % | TEAE Sinusitis, n (%) ([2]; 30 mg QD): (1.3) % | TEAE Somnolence, n (%) ([2]; 30 mg QD): (1.8) % | TEAE Upper Respiratory Tract Infection, n (%) ([2]; 30 mg QD): (5.7) % | TEAE Urinary Tract Infection, n (%) ([2]; 30 mg QD): (3.9) % | Deaths, n (%) ([2]; 60 mg QD): (0.0) % | TEAE Constipation, n (%) ([2]; 60 mg QD): (6.9) % | TEAE Fatigue, n (%) ([2]; 60 mg QD): (3.9) % | TEAE Gastroenteritis, n (%) ([2]; 60 mg QD): (1.3) % | TEAE Influenza, n (%) ([2]; 60 mg QD): (2.2) % | TEAE Nasopharyngitis, n (%) ([2]; 60 mg QD): (3.5) % | TEAE Nausea, n (%) ([2]; 60 mg QD): (6.1) % | TEAE Sinus Congestion, n (%) ([2]; 60 mg QD): (1.7) % | TEAE Sinusitis, n (%) ([2]; 60 mg QD): (2.2) % | TEAE Somnolence, n (%) ([2]; 60 mg QD): (1.7) % | TEAE Upper Respiratory Tract Infection, n (%) ([2]; 60 mg QD): (3.9) % | TEAE Urinary Tract Infection, n (%) ([2]; 60 mg QD): (3.9) % | cases of constipation mild in severity ([2]; human, in vivo, 12 weeks): 71.4% | cases of constipation moderate in severity ([2]; human, in vivo, 12 weeks): 26.5% | cases of nausea mild in severity ([2]; human, in vivo, 12 weeks): 77.1% | cases of nausea moderate in severity ([2]; human, in vivo, 12 weeks): 22.9% | frequency of upper respiratory tract infection ([2]; human, in vivo, 12 weeks): 3.9-5.7% | Change from Baseline in MSQ v2.1 Domain Score, LS Mean Δ from baseline ([3]; Week 12): 30.02 | Change from Baseline in MSQ v2.1 Domain Score, LS Mean Δ from baseline ([3]; Week 24): 30.79 | Change from Baseline in MSQ v2.1 Domain Score, LS Mean Δ from baseline ([3]; Week 36): 32.34 | Change from Baseline in MSQ v2.1 Domain Score, LS Mean Δ from baseline ([3]; Week 48): 34.32 | Change from Baseline in MSQ v2.1 Domain Score, LS Mean Δ from baseline ([3]; Week 52): 34.70
